Literature values in US20160317442A1, “Nanosomal preparation of the complex formed by quercetin (or another flavonol, flavone or a derivative thereof) and 2-hydroxypropyl-beta-cyclodextrin for intravenous use in cerebral pathological conditions” (priority 2013, published 2016).

Details: aqueous preparations

detection of quercetin in the brain: not detected
SMILES: O=c1c(O)c(-c2ccc(O)c(O)c2)oc2cc(O)cc(O)c12 [quercetin]
